Assay [1] addresses Mab PPAT (Mycobacteroides abscessus, UniProt B1MDL6). Description: Isothermal titration calorimetry (ITC) on Mab PPAT. It is filed as binding, Mycobacterium abscessus. As to conditions: for Kd: ITC. The procedure: ITC experiments were done using an ITC200 (MicroCal) instrument. The Mab PPAT protein for ITC was dialysed overnight at 4°C in storage buffer (50 mM Tris-HCl pH 8.0, 150 mM NaCl) the same buffer was used for preparing the ligand solutions. The protein and ligands/fragments were used at a concentration of 72 μM and 1–5 mM, respectively. ITC recorded for ATP was done in buffer: 50 mM Hepes pH 8.0, 150 mM NaCl, 5 mM MgCl2, at Mab PPAT concentration of 200 uM and 3 mM ATP. Buffer components and other constituents like DMSO were kept constant in both protein and ligand solutions. Ligands to buffer titrations were subtracted in all cases and experiments were repeated at least twice. Data were analysed using the Origin software (OriginLab, Northampton, MA, United States).
A general note: ITC needs no label: the signal is the heat of the interaction.

Assay [2] has as its system M. abscessus ATCC19977 whole-cell cultures. Description: Whole-cell luciferase-reporter based luminescence assay. Details: species or system Mycobacterium abscessus. As to conditions: up to a concentration of 200 µM; in comparison to positive control Amikacin; data not shown.
Assay [3] concerns the target Mtb PPAT. Details: method as in El Bakali et al., 2020. As to conditions: ref El Bakali et al., 2020; cited from earlier work.
Assay [4] addresses M. abscessus PPAT (Mycobacteroides abscessus, UniProt B1MDL6). It is filed as binding, Mycobacterium abscessus. As to conditions: Table 1; 10 μM PPAT, 5 mM compound, 5% DMSO.
[5] abbreviates: Mab PPAT 72 μM, 50 mM Tris-HCl pH 8.0, 150 mM NaCl, read-out: Kd (Mab PPAT).
Where [6] appears, read: Mab PPAT, 50 mM Tris-HCl pH 8.0, 150 mM NaCl, read-out: Kd.

Results on 19 compounds are retold here after article PMC9197168, “Structural Characterization of Mycobacterium abscessus Phosphopantetheine Adenylyl Transferase Ligand Interactions: Implications for Fragment-Based Drug Design” (Frontiers in Molecular Biosciences, 2022).

Where two headings read alike, the source gives them in different places.

M. abscessus PPAT, sequence (B1MDL6 whole entry): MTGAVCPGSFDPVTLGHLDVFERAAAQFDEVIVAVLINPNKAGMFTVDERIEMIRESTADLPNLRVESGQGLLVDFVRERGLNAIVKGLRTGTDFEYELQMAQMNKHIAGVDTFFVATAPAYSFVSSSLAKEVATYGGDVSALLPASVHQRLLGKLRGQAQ
Mab PPAT, sequence (B1MDL6 whole entry, the tested form may be a part): as the sequence (B1MDL6 whole entry) above

As for `Nc1ncnc2c1ncn2[C@@H]1O[C@H](COP(=O)(O)OP(=O)(O)OP(=O)(O)O)[C@@H](O)[C@H]1O` [ATP, Adenosine 5′ triphosphate, reference compound], the Kd (as a rule, the concentration at which binding is half-saturated) in assay [1] (50 mM Hepes pH 8.0, 150 mM NaCl, 5 mM MgCl2, Mab PPAT 200 uM, 3 mM ATP, read-out: Kd) is 20.1 ± 3.3 µM.
For the compound `CC(C)(COP(=O)(O)OP(=O)(O)OC[C@H]1O[C@@H](n2cnc3c(N)ncnc32)[C@H](O)[C@@H]1OP(=O)(O)O)[C@@H](O)C(=O)NCCC(=O)NCCS` [Coenzyme A, reference compound], the equilibrium dissociation constant (Kd) in assay [1] (setting [5]) came out at 8.2 ± 1.1 µM.
Consider `O=C(O)c1cnn(-c2ccccc2)c1OCCCc1c[nH]c2ccccc12` [Compound 20], for which the Kd was 3.2 ± 0.8 µM in assay [1] (setting [5]) and 15 ± 4 µM in assay [3]. Further, the “binding affinity on Mab PPAT relative to that on Mtb PPAT” value in assay [1] (Mab PPAT versus Mtb PPAT (Kd 15 ± 4 µM)) is reported as about 5 fold. Moreover, the “affinity relative to affinity of Mab PPAT for the substrate ATP” value in assay [1] (Mab PPAT, compound versus ATP) is “≈ 7 fold”. Besides, in assay [2], the “cellular activity on whole-cell cultures” value is listed as “low cellular activity”.
Regarding `Cc1c(C(=O)O)cnn1-c1ccccc1` [Fragment 1], the ΔΤm entry in assay [4] is “+6 °C”. The Kd in assay [1] (setting [6]) was determined as 540 ± 20 µM.
Take `O=C(O)c1ccc2[nH]nc(Br)c2c1` [Fragment 2]: the ΔΤm entry in assay [4] is “+12.5 °C”.
The same measure, in the same setting: for `Cc1cn(CCC(=O)O)c2ccccc12` [Fragment 3] the value was “+0.5 °C”.
Take `O=C(O)C(O)c1cccc(Oc2ccccc2)c1` (stereo not shown) [Fragment 4]: in assay [4], the ΔΤm entry was “+2.5 °C”.
Turning to `O=C(O)CCc1c[nH]c2ccccc12` [Fragment 5], the ΔΤm entry in assay [4] is “+3.5 °C”. Moreover, in assay [1] (setting [6]), the Kd came out at 3200 ± 20 µM.
As for `O=C(O)c1ccccc1C(=O)c1ccc(Cl)c([N+](=O)[O-])c1` [Fragment 6], the ΔΤm entry in assay [4] was “+4.5 °C”.
With `O=C(O)c1cc2cc(F)ccc2[nH]1` [Fragment 7], in assay [4], the ΔΤm entry is “+3.5 °C”.
Regarding `O=C(O)c1ccc2cc(F)ccc2c1` [Fragment 8], the ΔΤm result in assay [4] was “+2.9 °C”.
For `O=C(O)Cc1ccc2ccccc2c1` [Fragment 9], the ΔΤm result in assay [4] was “+2.3 °C”.
The same measure, in the same setting: next, `Cc1ccc(C(=O)O)c(C(=O)O)n1` [Fragment 10]: “+2.0 °C”; `O=C(O)c1cc2ccccc2cc1O` [Fragment 11]: “+2.0 °C”.
Same read-out and setting: next, `O=C(O)C(O)Cc1c[nH]c2ccccc12` (stereo not shown) [Fragment 12]: “+1.5 °C”; `N#Cc1ccc(Cl)cc1N` [Fragment 13]: “+1.5 °C”.
Consider `O=C(O)CCn1ccc2ccccc21` [Fragment 14], for which the ΔΤm entry in assay [4] is “+1 °C”.
The same measure, in the same setting: for `Cc1ccc2oc(=O)cc(O)c2c1` [Fragment 15] the value was “+0.5 °C”; for `O=C(O)Cn1ccc2ccccc21` [Fragment 16], -0.5 °C.
